Results as given in patent publication US9492424B2, “Muscle atrophy inhibitor” (MORINAGA MILK INDUSTRY CO., LTD., priority 2011, dated 2016).

Columns and labels:
MuRF1 gene = assay: expression amount of MuRF1 gene in tibialis anterior muscle by real time PCR; format: in vivo, rat; conditions: Example 3
Description: (§1) The tibialis anterior muscles collected in Example 1 mentioned above were used to evaluate expression amounts of genes that participate in muscle atrophy.
(§2) The tibialis anterior muscle was frozen in liquid nitrogen immediately after the collection, and homogenized in Trizol Reagent (Invitrogen), and the total RNA was extracted by using RNeasy Mini Kit (QIAGEN). cDNA was obtained by the total RNA by using High Capacity cDNA Reverse Kit (ABI). The cDNA, primers for amplifying each of the atrogin-1, MuRF1, and myostatin genes (ABI), and Taqman Fast Universal PCR Master Mix (ABI) were mixed, and expression amount of each gene in the test sample was relatively quantified by the real time PCR method, with taking the gene expression amount in the DEX group as 1. In statistical analysis, it was determined whether there were statistically significant differences between the values obtained for the DEX group and the values obtained for the other groups according to the Dunnett test.
(§3) In Examples 1 and 2, 1 mass % of the extract of Citrus depressa was added to the feed, and fed. […]

atrogin-1 gene = assay: expression amount of atrogin-1 gene in tibialis anterior muscle by real time PCR; format: in vivo, rat; conditions: Example 3
Description: as §1, §2, §3

Row | Compound | expression amount of the MuRF1 gene relative to DEX group taken as 1.0 (MuRF1 gene; eight-month old SD rats, 0.0004 mass % in feed for two weeks, dexamethasone) | ingestion amount with which the effect can be expected (MuRF1 gene; from feed intake and body weight of the TAN group, 19 days ingestion) | expression amount of the atrogin-1 gene relative to DEX group taken as 1.0 (atrogin-1 gene; eight-month old SD rats, 0.0007 mass % in feed for two weeks, dexamethasone) | ingestion amount with which the effect can be expected (atrogin-1 gene; from feed intake and body weight of the NOB group, 19 days ingestion)
1 | COc1ccc(-c2cc(=O)c3c(OC)c(OC)c(OC)c(OC)c3o2)cc1 [TAN, tangeretin] | 0.77±0.35 | about 0.1 mg/kg/day |  | 
2 | COc1ccc(-c2cc(=O)c3c(OC)c(OC)c(OC)c(OC)c3o2)cc1OC [NOB, nobiletin] |  |  | 0.85±0.29 | about 0.2 mg/kg/day
